Assay [1] deals with CDH6 expressing cell lines compared to non-expressing cell lines. Description: In vitro cellular activity on panel of CDH6 expressing and non-expressing cell lines. To be noted: OVCAR3 and OVCAR8-CDH6+ compared to OVCAR8; FIG. 12.
Assay [2] deals with CDH6 expressing primary (patient derived) ovarian tumors. Kind of assay: Patient-derived primary ovarian tumor xenograft mouse model (Example 18). It is filed as in vivo, nude mice. The note with it: 5 mg/kg i.v. Q14D. The procedure: Mice were enrolled in the study 48 days post implant with a mean tumor volume of 178 mm^3. […] All groups were dosed at 5 mg/kg.

The source of these data is patent US9982045B2, “Anti-CDH6 antibody drug conjugates” (Novartis AG, priority 2014, dated 2018).

Consider “NOV0712: anti-CDH6 human IgG1 from HuCAL PLATINUM phage display; binds CDH6 EC5; sequence in Table 5”, for which the “Cellular activity (inhibition of proliferation)” value in assay [1] is reported as “No cellular activity was observed”. Also, the “Anti-tumor activity (tumor volume)” value in assay [2] is recorded as “no inhibitory effect upon tumor growth”.
